Data published in patent US20240277716A1, “Suppressive T Cell Populations and Methods of Cancer Immunotherapy” (La Jolla Institute for Immunology, priority 2021, published 2024).

Legend:
Assay type in all cases: in vivo, mouse
[1] = test system: B16F10-OVA melanoma cells; experiment: B16F10-OVA melanoma model, PI-3065 in diet: tumor volume and flow cytometry
Description: (§1) Tumor experiments. Mice were inoculated with 1-1.5×10^5 B16F10-OVA cells subcutaneously into the right flank. Mice were put on either a control diet or a diet containing a PI3Kδ inhibitor PI-3065 on day 1 or day 5 after tumor inoculation. Diets were prepared using powdered 2018 global rodent diet (Envigo) mixed with or without PI-3065 at 0.5 g/kg, which corresponds to a daily dose of 75 mg/kg as used previously. To pellet the food, 50% v/w water was added to the diet and dough thoroughly mixed, compressed, molded and dried before use. Tumor size was monitored every other day, and tumor harvested at indicated time points for analysis of tumor-infiltrating lymphocytes. Tumor size limit of 15 mm in diameter was not exceeded and volume was calculated as ½×D×d^2, where D is the major axis and d is the minor axis, as described previously^36.
(§2) Murine lymphocytes were isolated from the spleen by mechanical dispersion through a 70-μm cell strainer (Miltenyi) to generate single-cell suspensions. RBC lysis (Biolegend) was performed to remove red blood cells. Tumor samples were harvested and lymphocytes were isolated by dispersing the tumor tissue in 2 ml of PBS, followed by incubation of samples at 37° C. for 15 min with DNase I (Sigma) and Liberase DL (Roche). The suspension was then diluted with MACS buffer and passed through a 70-μm cell strainer to generate a single cell suspension. Colons were collected and rinsed in 1 mM dithiothreitol (DTT) to remove feces. Each colon was cut into 2-3 mm pieces and incubated 3 times in pre-digestion solution (HBSS containing 5% FBS and 2 mM EDTA) at 37° C. for 20 min under high rotation to remove epithelial cells. Then tissues were minced with scissors and incubated with digestion solution (HBSS containing 5% FBS, 100 μg/ml DNase I (Sigma) and 1 mg/ml collagenase (Sigma)) at 37° C. for 20 min under high rotation to get single cell solutions of lamina propria cells. Cells were prepared in staining buffer (PBS with 2% FBS and 2 mM EDTA), FcR blocked (clone 2.4G2, BD Biosciences) and stained with antibodies as indicated below for 30 min at 4° C.; secondary stains were done for selected markers. Samples were then sorted or fixed and intracellularly stained using a FoxP3 transcription factor kit according to manufacturer's instructions (eBioscience). Cell viability was determined using fixable viability dye (ThermoFisher). The following antibodies from BD Biosciences, Biolegend, Miltenyi or eBbioscience were used: anti-human PD-1 (EH12.1, 1:30), CD4 (OKT4, 1:30), CD137 (4B4-1, 1:30), GITR (108-17, 1:30), ICOS (C398.4A, 1:50), CD8A (SKI, 1:30), CD25 (M-A251, 1:20), CD3 (SK7, 1:30), CD127 (eBioRDR5, 1:50), CD45 (HI30, 1:30), CD14 (HCD14, 1:50), CD20 (2H7, 1:50); anti-mouse CD3 (145-2C11, 1:100), CD4 (RM4-5, 1:100), CD8 (53-6.7, 1:100), PD-1 (29F1.A12, 1:100), ST2 (U29-93, 1:100) Ki67 (B56, 1:40), TOX (REA473, 1:40), CD19 (6D5, 1:100), CD45 (30-F11, 1:100), FOXP3 (FJK-16s, 1:100), GZMB (QA16A02, 1:40). All samples were acquired on a BD FACS Fortessa or sorted on a BD FACS Fusion (both BD Biosciences) and analyzed using FlowJo 10.4.1 for subsequent single-cell RNA-seq analysis.

[2] = test system: TREG cells from tumor, spleen and colonic tissue; experiment: Single-cell RNA-seq and flow cytometry of TREG and CD8+ T cells from tumor, spleen and colon of B16F10-OVA tumor-bearing mice
Description: as §2
Murine TREG cells. […] Reads were mapped with Cell Ranger followed by QC (github.com/vijaybioinfo/quality_control) and demultiplexed with bcl2fastq using default parameters. […] Differential expression was calculated with MAST^38 (v1.10.0) DESeq2 (v1.24.0) as previously described^37 and genes with an adjusted P-value <0.05 and a fold change of >log2 0.5 were defined as significant. […]

[3] = test system: DSS-induced acute colitis; experiment: Dextran Sulfate Sodium (DSS)-induced acute colitis model
Description: Colitis experiments. […] Body weight of the mice was monitored. Colon tissues were collected for histological analysis at the endpoint. Whole colons were harvested from mice between cecum and rectum. Stools were flushed out of lumen with PBS. Then colons were fixed with zinc formalin for 5 minutes. Fixed colons were opened longitudinally, flattened, cut into 3 fragments and further fixed in zinc formalin for 48 hours in cassettes. After fixation, samples were transferred to 70% isopropanol for long term storage or H&E staining. Slides were scored blindly according to the following criteria: inflammation, area of infiltration (extent), crypt damage and edema. The colon was divided into 3 equal parts and the middle section was utilized for scoring. Four randomly selected areas were analyzed, and a histological score was determined.

[4] = test system: colonic CD8+ and CD4+ T cells; experiment: scRNA sequencing of colonic CD8+ and CD4+ T cells under different PI3Kδi dosing regimens
Description: as §1
Murine colonic CD4+ and CD8+ T cells. Single-cell RNA-seq was performed by using the 10× platform. Mapping, aggregation, and QC was carried out as described above with the following thresholds: genes per cells range of [300, 4500], UMI content per cell […], percent of mitochondrial counts of <=10%, and a doublet score of <=0.3. Cluster of contaminant cells expressing epithelial, monocyte, and fibroblast markers was eliminated after the first round of clustering. The final number of cells were n=6415 CD4^+ T cells and n=2715 CD8^+ T cells.

Fc1ccc2[nH]ccc2c1-c1nc(N2CCOCC2)c2sc(CN3CCN(CC4CC4)CC3)cc2n1 [PI-3065]
tumor volume ([1]; C57BL/6 wild-type mice, PI-3065 diet vs control): significant decrease
TREG cells in tumor, spleen and colon ([1]; PI3Kδi-treated vs placebo-treated mice): significant decrease
tumor growth ([1]; continuous dosing (for the duration of the experiment)): decrease in tumor growth
CD8+ T cell infiltration in colonic tissue ([1]; continuous dosing only): increased
TREG cell levels in colonic tissue ([1]; continuous dosing only): decreased
intratumoral CD8+ T cells ([1]; high PD-1, increased proliferative and cytotoxic capacity): significant increase
tumor growth ([1]; infrequent dosing (2 days on, 5 days off), 2 cycles): decrease in tumor growth, albeit not significantly
tumor growth ([1]; intermittent dosing (4 days on, 3 days off), 2 cycles): significant decrease in tumor growth
TOX in CD8+ T cells ([1]; post-PI3Kδi): increased
differentially expressed genes in colonic TREG cells ([2]; PI3Kδi vs placebo treatment): 869 genes
colonic TREG subsets (clusters 2 and 8) ([2]; PI3Kδi-treated mice): depleted
CD8+ T cells in colonic tissue ([2]; colonic, but not splenic tissue): significant increase
ratio of CD8+ T cells to ST2 TREG cells ([2]; protein level): substantially increased
body weight ([3]; 2.5% DSS from day 14-20, PI-3065 diet vs placebo): swift reduction in body weight
deaths prior to experimental endpoint ([3]; PI3Kδ inhibitor-treated group, n=10): one
effect on colitis ([3]; PI-3065 diet plus 2.5% DSS): exacerbates colitis
overall colitis score ([3]; inflammation, crypt damage, extent, vs placebo): higher overall colitis score
innate-like CD8+ T cells in colon ([4]; across dosing regimens): dosing-dependent decrease
TC17 and TH17 subsets and pertaining proliferating clusters, share of all cells ([4]; continuous dosing regimen): ~50%
TC17 and TH17 subsets and pertaining proliferating clusters ([4]; other treatment conditions (intermittent, infrequent, control)): nearly completely absent
